# According to patent US11813306B2, “Cyclic tetramer compounds as proprotein convertase subtilisin/kexin type 9 (PCSK9) inhibitors for the treatment of metabolic disorders” (NOVARTIS AG, priority 2018, dated 2023):
# Target: human PCSK9 (Homo sapiens, UniProt Q8NBP7)
# Experiment: PCSK9 ligand binding assay (TR-FRET): interference with binding of human PCSK9 to human LDLR
# Conditions: for IC50: Human PCSK9 Alexa Fluor 647 / Human LDLR extracellular domain-Europium Kryptate; for Max % inhibition: efficacy (Amax), 100% = 1 uM unlabeled human PCSK9, 0% = DMSO
# Summary of the method: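 Read-out was TR-FRET ratio (665 nm over 615 nm, 330 nm excitation) between Alexa Fluor 647-human PCSK9 (16 nM added) and Europium Kryptate-human LDLR ectodomain (4 nM added). Compound and PCSK9 were mixed 30 min before LDLR, then incubated 2 h. Inhibition was normalised to DMSO and unlabelled-PCSK9 controls, giving IC50 and Amax.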
# human PCSK9, sequence (Q8NBP7 153-692): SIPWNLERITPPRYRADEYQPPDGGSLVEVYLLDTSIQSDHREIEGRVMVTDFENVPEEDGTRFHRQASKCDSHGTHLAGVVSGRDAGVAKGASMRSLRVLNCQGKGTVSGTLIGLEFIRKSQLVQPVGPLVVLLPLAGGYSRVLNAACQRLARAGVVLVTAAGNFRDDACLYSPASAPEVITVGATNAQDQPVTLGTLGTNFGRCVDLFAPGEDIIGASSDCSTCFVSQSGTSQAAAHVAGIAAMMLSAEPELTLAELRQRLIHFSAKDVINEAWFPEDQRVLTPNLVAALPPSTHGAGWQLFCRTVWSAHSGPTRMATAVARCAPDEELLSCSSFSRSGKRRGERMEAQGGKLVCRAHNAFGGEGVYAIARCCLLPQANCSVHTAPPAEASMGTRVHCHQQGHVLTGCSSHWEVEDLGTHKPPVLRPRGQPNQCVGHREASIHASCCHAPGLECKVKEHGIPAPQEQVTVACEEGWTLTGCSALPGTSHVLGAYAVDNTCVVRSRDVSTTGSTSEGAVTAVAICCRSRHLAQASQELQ
# human PCSK9, sequence (Q8NBP7 31-152 partner limits assumed): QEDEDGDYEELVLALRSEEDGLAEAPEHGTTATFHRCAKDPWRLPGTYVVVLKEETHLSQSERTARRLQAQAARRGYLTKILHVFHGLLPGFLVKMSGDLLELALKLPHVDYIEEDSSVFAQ
Compound,IC50 [nM],Max % inhibition [%]
"C[C@H]1C(=O)N[C@@H](CO)C(=O)N[C@@]2(Cc3ccc(Cl)cc3)CCCN(C2)C(=O)[C@H](Cc2ccccc2)CC(=O)N1Cc1ccc(Cl)cc1Oc1ccc(-c2nnc(CN(C)C)n2C)cc1 [Compound 56, (3R, 7S, 10S, 13R)-3-benzyl-6-(4-chloro-2-(4-(5-((dimethylamino)methyl)-4-methyl-4H-1,2,4-triazol-3-yl)phenoxy)benzyl)-13-(4-chlorobenzyl)-10-(hydroxymethyl)-7-methyl-1,6,9,12-tetraazabicyclo[11.3.1]heptadecane-2,5,8,11-tetraone]",0.425,101.7
"COC[C@@H]1NC(=O)[C@@H](C)N(Cc2c(F)cc(Cl)cc2Oc2ccc(-c3cnc(CN(C)C)n3C)nc2)C(=O)C[C@@H](CC(F)(F)F)C(=O)N2CCC[C@@](Cc3ccc(Cl)cc3)(C2)N(C)C1=O [Compound 176, (3S, 7R, 10S, 13R)-6-(4-chloro-2-((6-(2-((dimethylamino)methyl)-1-methyl-1H-imidazol-5-yl)pyridin-3-yl)oxy)-6-fluorobenzyl)-13-(4-chlorobenzyl)-10-(methoxymethyl)-7,12-dimethyl-3-(2,2,2-trifluoroethyl)-1,6,9,12-tetraazabicyclo[11.3.1]heptadecane-2,5,8,11-tetraone]",76.3,86.3
"COC[C@@H]1NC(=O)[C@H](CCN2CCOCC2)N(Cc2ccc(Cl)cc2Oc2ccc(-c3cnc(CN(C)C)n3C)cc2)C(=O)C[C@@H]([C@H]2CCc3ccccc32)C(=O)N(C)C[C@@H](Cc2ccc(Cl)cc2)N(C)C1=O.Cl [Compound 125, (2S, 5S, 8R, 12S)-1-(4-chloro-2-(4-(2-((dimethylamino)methyl)-1-methyl-1H-imidazol-5-yl)phenoxy)benzyl)-8-(4-chlorobenzyl)-12-((R)-2,3-dihydro-1H-inden-1-yl)-5-(methoxymethyl)-7,10-dimethyl-2-(2-morpholinoethyl)-1,4,7,10-tetraazacyclotetradecane-3,6,11,14-tetraone]",103,92.2
"CCN(Cc1ncc(-c2ccc(Oc3cc(Cl)cc(F)c3CN3C(=O)C[C@@H](CC(F)(F)F)C(=O)N4CCC[C@@](Cc5ccc(Cl)cc5)(C4)NC(=O)[C@H](CO)NC(=O)[C@@H]3C)cc2)n1C)C1(C)CC1 [Compound 152, (3S, 7S, 10S, 13R)-6-(4-chloro-2-(4-(2-((ethyl(1-methylcyclopropyl)amino)methyl)-1-methyl-1H-imidazol-5-yl)phenoxy)-6-fluorobenzyl)-13-(4-chlorobenzyl)-10-(hydroxymethyl)-7-methyl-3-(2,2,2-trifluoroethyl)-1,6,9,12-tetraazabicyclo[11.3.1]heptadecane-2,5,8,11-tetraone]",3.29,103.4
"C[C@@H]1CC(=O)N(Cc2c(F)cc(Cl)cc2Oc2ccc(-c3cnc(CN(C)C)n3C)cc2)[C@@H](C)C(=O)N[C@@H](CO)C(=O)N(C)[C@@]2(Cc3ccc(Cl)cc3)CCCN(C2)C1=O [Compound 99, (3R, 7S, 10S, 13R)-6-(4-chloro-2-(4-(2-((dimethylamino)methyl)-1-methyl-1H-imidazol-5-yl)phenoxy)-6-fluorobenzyl)-13-(4-chlorobenzyl)-10-(hydroxymethyl)-3,7,12-trimethyl-1,6,9,12-tetraazabicyclo+11.3.1+heptadecane-2,5,8,11-tetraone]",2.86,116.6
"COC[C@@H]1NC(=O)[C@H](C)N(Cc2c(F)cc(Cl)cc2Oc2ccc(-c3cnc(CN4CCC4)n3C)cc2)C(=O)C[C@@H](CC(F)(F)F)C(=O)N2CCC[C@@](Cc3ccc(Cl)cc3)(C2)N(C)C1=O [Compound 157, (3S, 7S, 10S, 13R)-6-(2-(4-(2-(azetidin-1-ylmethyl)-1-methyl-1H-imidazol-5-yl)phenoxy)-4-chloro-6-fluorobenzyl)-13-(4-chlorobenzyl)-10-(methoxymethyl)-7,12-dimethyl-3-(2,2,2-trifluoroethyl)-1,6,9,12-tetraazabicyclo[11.3.1]heptadecane-2,5,8,11-tetraone]",1.18,104.7
"C[C@H]1C(=O)N[C@@H](CO)C(=O)N[C@@]2(Cc3ccc(Cl)cc3)CCCN(C2)C(=O)[C@H](CC(F)(F)F)CC(=O)N1Cc1ccc(Cl)cc1Oc1ccc(-c2cnc(CNC(C)(C)C)n2C)cc1 [Compound 147, (3S, 7S, 10S, 13R)-6-(2-(4-(2-((tert-butylamino)methyl)-1-methyl-1H-imidazol-5-yl)phenoxy)-4-chlorobenzyl)-13-(4-chlorobenzyl)-10-(hydroxymethyl)-7-methyl-3-(2,2,2-trifluoroethyl)-1,6,9,12-tetraazabicyclo[11.3.1]heptadecane-2,5,8,11-tetraone]",0.72,110.6
"COC[C@@H]1NC(=O)[C@H](C)N(Cc2c(F)cc(Cl)cc2Oc2ccc(-c3cnc(CNC(C)(C)C)n3C)cc2)C(=O)C[C@@H](CC2CC2)C(=O)N2CCC[C@@](Cc3ccc(Cl)cc3)(C2)NC1=O [Compound 142, (3R, 7S, 10S, 13R)-6-(2-(4-(2-((tert-butylamino)methyl)-1-methyl-1H-imidazol-5-yl)phenoxy)-4-chloro-6-fluorobenzyl)-13-(4-chlorobenzyl)-3-(cyclopropylmethyl)-10-(methoxymethyl)-7-methyl-1,6,9,12-tetraazabicyclo[11.3.1]heptadecane-2,5,8,11-tetraone]",0.91,111.1
"C[C@H]1C(=O)N[C@@H](CO)C(=O)N[C@@]2(Cc3ccc(Cl)cc3)CCCN(C2)C(=O)[C@H](CC2CCC2)CC(=O)N1Cc1c(F)cc(Cl)cc1Oc1ccc(-c2cnc(CN(C)C)n2C)cc1 [Compound 155, (3R, 7S, 10S, 13R)-6-(4-chloro-2-(4-(2-((dimethylamino)methyl)-1-methyl-1H-imidazol-5-yl)phenoxy)-6-fluorobenzyl)-13-(4-chlorobenzyl)-3-(cyclobutylmethyl)-10-(hydroxymethyl)-7-methyl-1,6,9,12-tetraazabicyclo[11.3.1]heptadecane-2,5,8,11-tetraone]",0.95,101.4
"COC[C@@H]1NC(=O)[C@H](C)N(Cc2c(F)cc(Cl)cc2Oc2ccc(-n3cnc(CN4CCCC4)c3C)cc2)C(=O)C[C@@H](Cc2ccccc2)C(=O)N2CCC[C@@](Cc3ccc(Cl)cc3)(C2)NC1=O [Compound 39, (3R, 7S, 10S, 13R)-3-benzyl-6-(4-chloro-2-fluoro-6-(4-(5-methyl-4-(pyrrolidin-1-ylmethyl)-1H-imidazol-1-yl)phenoxy)benzyl)-13-(4-chlorobenzyl)-10-(methoxymethyl)-7-methyl-1,6,9,12-tetraazabicyclo[11.3.1]heptadecane-2,5,8,11-tetraone]",0.383,113.2
"COC[C@@H]1NC(=O)[C@H](C)N(Cc2c(F)cc(Cl)cc2Oc2ccc(-c3cnc(CN(C)C)n3C)cc2)C(=O)C[C@@H](CC(F)(F)F)C(=O)N2CCC[C@@](Cc3ccc(Cl)cc3)(C2)N(C)C1=O [Compound 22, (3S,7S,10S,13R)-6-(4-Chloro-2-(4-(2-((dimethylamino)methyl)-1-methyl-1H-imidazol-5-yl)phenoxy)-6-fluorobenzyl)-13-(4-chlorobenzyl)-10-(methoxymethyl)-7,12-dimethyl-3-(2,2,2-trifluoroethyl)-1,6,9,12-tetraazabicyclo[11.3.1]heptadecane-2,5,8,11-tetraone]",0.159,101.9
"C[C@H]1C(=O)N[C@@H](CO)C(=O)N(C)[C@@]2(Cc3ccc(Cl)cc3)CCCN(C2)C(=O)[C@H](C2CC(F)(F)C2)CC(=O)N1Cc1c(F)cc(Cl)cc1Oc1ccc(-c2cnc(CN(C)C)n2C)cc1 [Compound 164, (3S, 7S, 10S, 13R)-6-(4-chloro-2-(4-(2-((dimethylamino)methyl)-1-methyl-1H-imidazol-5-yl)phenoxy)-6-fluorobenzyl)-13-(4-chlorobenzyl)-3-(3,3-difluorocyclobutyl)-10-(hydroxymethyl)-7,12-dimethyl-1,6,9,12-tetraazabicyclo[11.3.1]heptadecane-2,5,8,11-tetraone]",0.9,109.6
"COC[C@@H]1NC(=O)[C@H](C)N(Cc2ccc(Cl)cc2Oc2ccc(-c3cnc(CN4CCCC4)n3C)cc2)C(=O)C[C@@H]([C@H]2CC(C)(C)c3ccccc32)C(=O)N(C)C[C@@H](Cc2ccc(Cl)cc2)N(C)C1=O.Cl [Compound 111, (2S, 5S, 8R, 12S)-1-(4-chloro-2-(4-(1-methyl-2-(pyrrolidin-1-ylmethyl)-1H-imidazol-5-yl)phenoxy)benzyl)-8-(4-chlorobenzyl)-12-((R)-3,3-dimethyl-2,3-dihydro-1H-inden-1-yl)-5-(methoxymethyl)-2,7,10-trimethyl-1,4,7,10-tetraazacyclotetradecane-3,6,11,14-tetraone]",11.4,102.4
"C[C@H]1C(=O)N[C@@H](COC(F)F)C(=O)N(C)[C@@]2(Cc3ccc(Cl)cc3)CCCN(C2)C(=O)[C@H](CC(F)(F)F)CC(=O)N1Cc1c(F)cc(Cl)cc1Oc1ccc(-c2cnc(CN(C)C)n2C)cc1 [Compound 175, (3S, 7S, 10S, 13R)-6-(4-chloro-2-(4-(2-((dimethylamino)methyl)-1-methyl-1H-imidazol-5-yl)phenoxy)-6-fluorobenzyl)-13-(4-chlorobenzyl)-10-((difluoromethoxy)methyl)-7,12-dimethyl-3-(2,2,2-trifluoroethyl)-1,6,9,12-tetraazabicyclo[11.3.1]heptadecane-2,5,8,11-tetraone]",2.56,114.7
C[C@H]1C(=O)N[C@@H](CO)C(=O)N[C@@]2(Cc3ccc(Cl)cc3)CCCN(C2)C(=O)[C@H]([C@@H]2CCc3ccccc32)CC(=O)N1Cc1cc(F)ccc1Oc1ccc(-c2cnc(CN(C)C)n2C)cc1 [Compound 73],1.36,95.0
